Like-named read-outs stand apart in the source and are kept apart here.
Columns and labels:
[1] = tested on: vitamin D-binding protein (DBP); settings: background knowledge, cited from earlier work
[2] = tested on: intracellular receptor of vitamin D; settings: background knowledge; cited from earlier work
[3] = tested on: human lymphocytes; assay: Inhibition of proliferation of PHA-stimulated human lymphocytes; format: cell-based; settings: for inhibition of lymphocyte proliferation (in words): compound alone; for antagonist effect in lymphocyte proliferation test: 10^-10 M derivative added to 1,25-(OH)2 -vitamin D3; for inhibition of lymphocyte proliferation, less active than 1,25-(OH)2 -vitamin D3: fold less active than 1,25-(OH)2 -vitamin D3
Excerpt: For example, if the proliferative response of human lymphocytes stimulated with PHA is 100 in the absence of vitamin D3, it is reduced to 66.5 in the presence of 10^-11 M 1,25-(OH)2 -vitamin D3 (Table 1). In the same test, the addition of 11-(2-hydroxyethyl)-1,25-(OH)2 -D3 induces no inhibition at 10^-10 M (102.6).
(§1) Bibliographic References 21, 22 and 23 served as references for the methodology of the tests of binding to DBP and to the receptor, and of the test of inhibition of lymphocyte proliferation.

[4] = tested on: HL 60 cells; assay: Differentiation of HL 60 leukemic cells in vitro; format: cell-based; settings: in words
Excerpt: This is, in effect, directly confirmed in various biological tests (induction of the differentiation HL 60 leukemic cells, inhibition of lymphocyte proliferation, modification of the proliferation of cancer cells, calciotropic effect, and the like). FIGS. (3-4) illustrate the effect of different analogs on the differentiation of HL 60 leukemic cells.

[5] = background knowledge, cited from earlier work
[6] = molecular target: T1, intracellular receptor for vitamin D (Rattus norvegicus, UniProt P13053); assay: Binding to the intracellular receptor for vitamin D, displacement of [^3 H]-1,25-(OH)2 -vitamin D3 (rat duodenum); settings: in words
T1 construct: from tissue; host or cells: rat duodenum
T1 sequence (P13053 1-423): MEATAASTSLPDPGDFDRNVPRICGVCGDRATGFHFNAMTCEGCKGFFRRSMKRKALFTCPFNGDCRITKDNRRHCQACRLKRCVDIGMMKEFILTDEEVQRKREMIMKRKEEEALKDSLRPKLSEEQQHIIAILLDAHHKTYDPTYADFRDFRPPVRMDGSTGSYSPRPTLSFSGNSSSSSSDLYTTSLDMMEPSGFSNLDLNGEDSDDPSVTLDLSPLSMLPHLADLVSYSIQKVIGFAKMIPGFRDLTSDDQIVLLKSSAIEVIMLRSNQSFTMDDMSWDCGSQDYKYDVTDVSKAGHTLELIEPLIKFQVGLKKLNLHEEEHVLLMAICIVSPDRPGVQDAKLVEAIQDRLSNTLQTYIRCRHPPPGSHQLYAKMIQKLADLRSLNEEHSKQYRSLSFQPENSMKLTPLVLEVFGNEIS
Excerpt: Binding of 1,25-(OH)2 -vitamin D and two C^11 -derivatives to the intracellular receptor for vitamin D, measured by displacement of the binding of the tracer ]^3 H]-1,25-(OH)2 -vitamin D3.
The affinity, however, is approximately 100- to 200-fold lower than that of 1,25-(OH)2 -vitamin D3. This experiment is reproducible with receptors of different origins (rat duodenum in the example illustrated, but also calf thymus, human lymphocytes, and the like).
as §1

[7] = molecular target: T2, purified human DBP (Homo sapiens, UniProt P02774); assay: Binding to purified human DBP, displacement of [^3 H]-25-OH-vitamin D3; settings: in words; FIG. 1
T2 construct: displacement of [3H]-25-OH-vitamin D3
T2 sequence (P02774 17-474): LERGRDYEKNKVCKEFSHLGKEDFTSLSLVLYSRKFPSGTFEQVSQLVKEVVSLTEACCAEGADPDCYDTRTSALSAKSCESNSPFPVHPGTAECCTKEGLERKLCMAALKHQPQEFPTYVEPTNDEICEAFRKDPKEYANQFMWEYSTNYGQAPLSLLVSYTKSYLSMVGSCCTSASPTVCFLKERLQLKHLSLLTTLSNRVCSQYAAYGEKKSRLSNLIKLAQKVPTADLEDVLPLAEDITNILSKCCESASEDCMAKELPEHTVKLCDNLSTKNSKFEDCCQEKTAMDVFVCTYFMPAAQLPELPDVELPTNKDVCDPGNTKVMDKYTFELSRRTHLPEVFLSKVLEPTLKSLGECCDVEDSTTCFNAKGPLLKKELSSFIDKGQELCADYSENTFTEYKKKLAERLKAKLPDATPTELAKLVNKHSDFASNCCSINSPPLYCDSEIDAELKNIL
Excerpt: Binding to purified human DBP of 25-OH-vitamin D3, 1,25-(OH)2 -vitamin D3 and some C^11 -derivatives of these molecules, measured by displacement of the binding of the tracer [^3 H]-25-OH-vitamin D3.
This affinity is not modified with an 11-hydroxyethyl derivative. […] This property has been turned to good account for obtaining analogs which can be iodinated via their branch at C^11, and these derivatives have been used successfully, for example, for developing the first specific assay for 25-OH-vitamin D3 using an iodinated tracer.
as §1

Structure (SMILES): C=C1/C(=C\C=C2/CCC[C@]3(C)[C@@H]([C@H](C)CCCC(C)(C)O)CC[C@@H]23)C[C@@H](O)C[C@@H]1O [1,25-(OH)2-vitamin D3]
- affinity for DBP [1]: lower affinity
- affinity for DBP ([1]; listed as 1α,25-(OH)2 -vitamin D): low affinity
- affinity for the intracellular receptor of vitamin D [2]: high affinity
- lymphocyte proliferation ([3]; 1,25-(OH)2 -vitamin D3 10^-11 M alone, 100% in absence of vitamin D3, 1e-05 µM): 66.5%
- lymphocyte proliferation ([3]; 1,25-(OH)2 -vitamin D3 10^-12 M alone, 100% in absence of vitamin D3, 1e-06 µM): 93.8%
- inhibition of lymphocyte proliferation (in words) [3]: marked inhibition of proliferation
- biological activity in a test of differentiation of HL 60 cells ([4]; FIGS. 3-4): active
- half-life [5]: short half-life
- therapeutic index ([5]; listed as 1,25-(OH)2)-vitamin D): very narrow therapeutic index
- therapeutic index ([5]; listed as 1,25-(OH)2 -Vitamin D): narrow

Structure (SMILES): C=C1/C(=C\C=C2/C[C@H](CCOC(=O)CCC(=O)O)C[C@]3(C)[C@@H]([C@H](C)CCCC(C)(C)O)CC[C@@H]23)C[C@@H](O)C[C@@H]1O [11β-(2-hemisuccinoyloxyethyl)]
- binding to the vitamin D3 receptor ([6]; FIG. 2): bind the vitamin D3 receptor

Structure (SMILES): C=C1CC[C@H](O)C/C1=C/C=C1\CCC[C@]2(C)[C@@H]([C@H](C)CCCC(C)(C)O)CC[C@@H]12 [25-OH-vitamin D3]
- affinity for DBP [1]: high affinity
- affinity for the intracellular receptor of vitamin D [2]: low affinity
- biological activity in a test of differentiation of HL 60 cells ([4]; FIGS. 3-4): of low activity

Structure (SMILES): C=C1/C(=C\C=C2/C[C@H](C)C[C@]3(C)[C@@H]([C@H](C)CCCC(C)(C)O)CC[C@@H]23)C[C@@H](O)C[C@@H]1O [compound 47, 1α,25-(OH)2-11α-methylvitamin D3]
- binding to the vitamin D3 receptor ([6]; FIG. 2): affinity comparable to unsubstituted 1,25-(OH)2 -vitamin D3
- biological activity in a test of differentiation of HL 60 cells ([4]; FIGS. 3-4, listed as 11α-methyl-1,25-(OH)2 -vitamin D3): strong activity, approaching that of 1,25-(OH)2 -vitamin D3
- biological activity in a test of differentiation of HL 60 cells ([4]; FIGS. 3-4, listed as methyl derivative): very active

Structure (SMILES): C=C1/C(=C\C=C2/C[C@H](c3ccccc3)C[C@]3(C)[C@@H]([C@H](C)CCCC(C)(C)O)CC[C@@H]23)C[C@@H](O)C[C@@H]1O [compound 48, 1α,25-(OH)2-11α-phenylvitamin D3]
- binding to the vitamin D3 receptor ([6]; FIG. 2): binds the receptor better than the 11α-hydroxyethyl derivatives
- biological activity in a test of differentiation of HL 60 cells ([4]; FIGS. 3-4, listed as 11α-phenyl-1,25-(OH)2 -vitamin D3): active
- biological activity in a test of differentiation of HL 60 cells ([4]; FIGS. 3-4, listed as phenyl derivative): moderately active

Structure (SMILES): C=C1/C(=C\C=C2/C[C@H](CCO)C[C@]3(C)[C@@H]([C@H](C)CCCC(C)(C)O)CC[C@@H]23)C[C@@H](O)C[C@@H]1O [compound 49, 11α-(2-OH-ethyl)-1,25-(OH)2-vitamin D3]
- binding to the vitamin D3 receptor ([6]; FIG. 2, listed as 11α-(hydroxyethyl)): bind the vitamin D3 receptor
- binding to the vitamin D3 receptor ([6]; FIG. 2, listed as 11α-(hydroxyethyl)-1,25-(OH)2 -vitamin D3): comparable
- antagonist effect in lymphocyte proliferation test ([3]; listed as 11-(2-hydroxyethyl)-1,25-(OH)2 -D3): antagonizes its inhibitory effect
- antagonist effect in lymphocyte proliferation test ([3]; listed as 11-(OH-ethyl) derivative): behaves as a partial antagonist of vitamin D3
- lymphocyte proliferation ([3]; 11-(2-OH-Ethyl) derivative 10^-10 M + 1,25-(OH)2 -vitamin D3 10^-11 M, 0.0001 µM): 91.8%
- lymphocyte proliferation ([3]; 11-(2-OH-Ethyl) derivative 10^-10 M + 1,25-(OH)2 -vitamin D3 10^-12 M, 0.0001 µM): 98.5%
- activity at 0.0001 µM ([3]; Homo sapiens, Lymphocyte, 10^-10 M alone, response is 100 in the absence of vitamin D3, read-out: proliferative response of lymphocytes): 103%
- inhibition of lymphocyte proliferation (in words) [3]: no inhibition
- inhibition of lymphocyte proliferation, less active than 1,25-(OH)2 -vitamin D3 [3]: 100 fold
- binding to purified human DBP [7]: not modified
- biological activity in a test of differentiation of HL 60 cells ([4]; FIGS. 3-4): of low activity

Structure (SMILES): C=C1/C(=C\C=C2/C[C@H](CCOC(=O)CCC(=O)O)C[C@]3(C)[C@@H]([C@H](C)CCCC(C)(C)O)CC[C@@H]23)C[C@@H](O)C[C@@H]1O [compound 50, 11α-(2-HS-ethyl)-1,25-(OH)2-vitamin D3]
- binding to the vitamin D3 receptor ([6]; FIG. 2, listed as 11α-(2-hemisuccinoyloxyethyl vitamin D3)): comparable
- inhibition of lymphocyte proliferation, less active than 1,25-(OH)2 -vitamin D3 [3]: approximately 1000 fold

Structure (SMILES): C=C1CCC(O)CC1=CC=C1CC(CCO)CC2(C)C1CCC2C(C)CCCC(C)(C)O (centres unmarked) [compound 56, 11-(2-hydroxyethyl)-25-OH-vitamin D3]
- biological activity in a test of differentiation of HL 60 cells ([4]; FIGS. 3-4): of low activity

Structure (SMILES): C=C1CC[C@H](O)C/C1=C/C=C1\C[C@H](CCOC(=O)CCC(=O)O)C[C@]2(C)[C@@H]([C@H](C)CCCC(C)(C)O)CC[C@@H]12 [compound 57, 11-(2-HS-ethyl)-25-OH-vitamin D3]
- binding to purified human DBP [7]: does not necessarily modify this affinity substantially

Reference: patent US5093519A, “Vitamin D derivatives: therapeutic applications and applications to assays of metabolities of vitamin D” (priority 1988, dated 1992)
